From patent US20250144067A1, “PERSONALIZED STARVATION THERAPY FOR CANCER” (Faeth Therapeutics, Inc., priority 2021, published 2025)
Counter-ions that a name gives are not always drawn. Like-named read-outs stand apart in the source and are kept apart here.

What was measured:
[1] = tested on: NCI-H292 lung cancer cells; assay: FDA drug screening, complete media vs cholesterol-free media with simvastatin (TABLE 2); format: cell-based, human
[2] = tested on: NCI-H292 lung cancer cells; assay: FDA drug screening, complete media vs cholesterol-free media without statin (TABLE 1); format: cell-based, human
[3] = NCI-H292 cells, FDA drug library screen, cholesterol-free media with simvastatin 0.04 μM
[4] = NCI-H292 cells, FDA drug library screen, complete media
[5] = complete media minus cholesterol-free media + simvastatin, […]
[6] = Complete minus Cholesterol-free, […]
[7] = NCI-H292 cells, cholesterol-free media without statin, FDA drug library screen
[8] = NCI-H292 cells, complete media, FDA drug library screen
[9] = NCI-H292 cells, FDA library drug in cholesterol-free media with simvastatin 0.04 μM
[10] = NCI-H292 cells, FDA library drug in complete media
[11] = complete media vs cholesterol-free media + simvastatin (0.04 μM), >0 enhanced anti-cancer activity, about 0 neutral, <0 antagonist
[12] = Complete minus Cholesterol-free, >0 enhanced anti-cancer activity, about 0 neutral, <0 antagonist
[13] = NCI-H292 cells, cholesterol-free media without statin
[14] = NCI-H292 cells, drug in cholesterol-free media with simvastatin 0.04 μM
[15] = NCI-H292 cells, drug in complete media
[16] = complete vs cholesterol-free media, >0 enhanced anti-cancer activity, about 0 neutral, <0 antagonist
[17] = complete vs cholesterol-free media, greater than 0 enhanced anti-cancer activity, about 0 neutral, below 0 antagonists
[18] = complete media minus cholesterol-free media + simvastatin, >0 enhanced anti-cancer activity, about 0 neutral, <0 antagonist
[19] = NCI-H292 cells, cholesterol-free media with simvastatin 0.04 μM, cell growth value in FDA drug screen
[20] = NCI-H292 cells, complete media, cell growth value in FDA drug screen

SMILES | Cholesterol-free media + simvastatin (0.04 μM) [1, 3] | Complete Media [1, 4] | Cholesterol-free [2, 7] | Complete [2, 8] | Difference [1, 11] | Difference [2, 12] | Cholesterol-free [2, 13] | Complete ([2]; NCI-H292 cells, complete media) | other results
CCCC(=O)OC[C@@H](OC(=O)CCC)[C@@H](OC(=O)CCC)[C@H](Cn1c2nc(=O)[nH]c(=O)c-2nc2cc(C)c(C)cc21)OC(=O)CCC [Riboflavin Tetrabutyrate] | 1.163 | 1.747 | 0.7766 | 0.8432 |  |  |  |  | Difference [1, 5]: 0.58; Difference [2, 6]: 0.07
NC[C@H]1O[C@H](O[C@H]2[C@H](O[C@@H]3O[C@H](CO)[C@@H](O)[C@H]3O)[C@@H](O)[C@H](N)C[C@@H]2N)[C@H](N)[C@@H](O)[C@@H]1O.O=S(=O)(O)O [Ribostamycin (sulfate)] |  |  |  |  | −0.36 | −0.22 | 1.714 | 1.495 | Cholesterol-free media + simvastatin (0.04 μM) [1, 9]: 1.833; Complete Media [1, 10]: 1.478
CO[C@H]1/C=C/O[C@@]2(C)Oc3c(C)c(O)c4c(c3C2=O)C2=NC3(CCN(CC(C)C)CC3)NC2=C(NC(=O)/C(C)=C\C=C\[C@H](C)[C@H](O)[C@@H](C)[C@@H](O)[C@@H](C)[C@H](OC(C)=O)[C@@H]1C)C4=O [Rifabutin] |  |  | 0.7322 | 0.8211 | −0.26 |  |  |  | Cholesterol-free media + simvastatin (0.04 μM) [1, 14]: 1.205; Complete Media [1, 15]: 0.9499; Difference [2, 16]: 0.09
CO[C@H]1/C=C/O[C@@]2(C)Oc3c(C)c(O)c4c(O)c(c(/C=N/N5CCN(C)CC5)c(O)c4c3C2=O)NC(=O)/C(C)=C\C=C\[C@H](C)[C@H](O)[C@@H](C)[C@@H](O)[C@@H](C)[C@H](OC(C)=O)[C@@H]1C [Rifampicin] |  |  | 0.7396 | 1.143 | −0.36 |  |  |  | Cholesterol-free media + simvastatin (0.04 μM) [1, 9]: 1.219; Complete Media [1, 10]: 0.8641; Difference [2, 16]: 0.40
CO[C@H]1/C=C/O[C@@]2(C)Oc3c(C)c([O-])c4c(O)c(cc(O)c4c3C2=O)NC(=O)/C(C)=C\C=C\[C@H](C)[C@H](O)[C@@H](C)[C@@H](O)[C@@H](C)[C@H](OC(C)=O)[C@@H]1C.[Na+] [Rifamycin (sodium)] |  |  |  |  | −0.29 |  | 2.314 | 1.878 | Cholesterol-free media + simvastatin (0.04 μM) [1, 9]: 1.045; Complete Media [1, 10]: 0.7505; Difference [2, 17]: −0.44
CO[C@H]1/C=C/O[C@@]2(C)Oc3c(C)c(O)c4c(O)c(c(/C=N/N5CCN(C6CCCC6)CC5)c(O)c4c3C2=O)NC(=O)/C(C)=C\C=C\[C@H](C)[C@H](O)[C@@H](C)[C@@H](O)[C@@H](C)[C@H](OC(C)=O)[C@@H]1C [Rifapentine] | 1.582 | 1.938 | 1.056 | 0.9967 |  | −0.06 |  |  | Difference [1, 18]: 0.36
CO[C@H]1/C=C/O[C@@]2(C)Oc3c(C)c(O)c4c(O)c(c5c(nc6cc(C)ccn65)c4c3C2=O)NC(=O)/C(C)=C\C=C\[C@H](C)[C@H](O)[C@@H](C)[C@@H](O)[C@@H](C)[C@H](OC(C)=O)[C@@H]1C [Rifaximin] | 0.8832 | 0.7304 | 0.8156 | 1.163 | −0.15 |  |  |  | Difference [2, 16]: 0.35
Cc1cc(/C=C/C#N)cc(C)c1Nc1ccnc(Nc2ccc(C#N)cc2)n1 [Rilpivirine] |  |  | 0.8235 | 0.8865 | −0.50 | 0.06 |  |  | Cholesterol-free media + simvastatin (0.04 μM) [1, 9]: 1.859; Complete Media [1, 10]: 1.359
Nc1nc2ccc(OC(F)(F)F)cc2s1 [Riluzole hydrochloride] |  |  |  |  |  | −0.27 | 1.152 | 0.8769 | Cholesterol-free media + simvastatin (0.04 μM) [1, 19]: 0.9663; Complete Media [1, 20]: 0.9877; Difference [1, 18]: 0.02
Nc1nc2ccc(OC(F)(F)F)cc2s1 [Riluzole] | 0.9966 | 1.259 | 1.015 | 1.033 |  | 0.02 |  |  | Difference [1, 18]: 0.26
CC(N)C12CC3CC(CC(C3)C1)C2 (stereo not drawn) [Rimantadine (hydrochloride)] | 0.9474 | 0.8656 | 0.8509 | 1.649 | −0.08 |  |  |  | Difference [2, 16]: 0.80
N[C@@H]1c2cccnc2[C@H](OC(=O)N2CCC(n3c(=O)[nH]c4ncccc43)CC2)CC[C@H]1c1cccc(F)c1F [Rimegepant] |  |  |  |  | −0.20 |  | 1.457 | 0.9844 | Cholesterol-free media + simvastatin (0.04 μM) [1, 14]: 1.311; Complete Media [1, 15]: 1.114; Difference [2, 17]: −0.47
Cc1c(C(=O)NN2CCCCC2)nn(-c2ccc(Cl)cc2Cl)c1-c1ccc(Cl)cc1 [Rimonabant (Hydrochloride)] |  |  |  |  |  |  | 1.291 | 0.882 | Cholesterol-free media + simvastatin (0.04 μM) [1, 19]: 0.8204; Complete Media [1, 20]: 0.8385; Difference [1, 18]: 0.02; Difference [2, 17]: −0.41
COC(=O)N(C)c1c(N)nc(-c2nn(Cc3ccccc3F)c3ncccc23)nc1N [Riociguat] |  |  |  |  |  | −0.22 | 0.9238 | 0.7003 | Cholesterol-free media + simvastatin (0.04 μM) [1, 19]: 1.101; Complete Media [1, 20]: 1.185; Difference [1, 18]: 0.08
C[C@H]1CNCCCN1S(=O)(=O)c1cccc2cncc(F)c12 [Ripasudil] |  |  | 0.6571 | 0.9065 | −0.21 |  |  |  | Cholesterol-free media + simvastatin (0.04 μM) [1, 14]: 1.388; Complete Media [1, 15]: 1.177; Difference [2, 16]: 0.25
O=P(O)(O)C(O)(Cc1cccnc1)P(=O)(O)O [Risedronate (sodium)] |  |  |  |  |  | −0.30 | 1.022 | 0.7264 | Cholesterol-free media + simvastatin (0.04 μM) [1, 19]: 0.8847; Complete Media [1, 20]: 0.9961; Difference [1, 18]: 0.11
Cc1nc2n(c(=O)c1CCN1CCC(c3noc4cc(F)ccc34)CC1)CCCC2 [Risperidone] |  |  |  |  |  |  |  |  | Cholesterol-free media + simvastatin (0.04 μM) [1]: 0.9957; Difference [1]: 0.16; Cholesterol-free [2]: 1.099; Complete [2]: 0.9616; Difference [2]: −0.14
CC(NCCc1ccc(O)cc1)C(O)c1ccc(O)cc1 (stereo not drawn) [Ritodrine (hydrochloride)] | 1.064 | 0.9618 |  |  | −0.10 |  | 1.435 | 0.972 | Difference [2, 17]: −0.46
CC(C)c1nc(CN(C)C(=O)N[C@H](C(=O)N[C@@H](Cc2ccccc2)C[C@H](O)[C@H](Cc2ccccc2)NC(=O)OCc2cncs2)C(C)C)cs1 [Ritonavir] |  |  |  |  | −0.31 | −0.25 | 1.533 | 1.287 | Cholesterol-free media + simvastatin (0.04 μM) [1, 9]: 1.133; Complete Media [1, 10]: 0.8233
O=C(NC[C@H]1CN(c2ccc(N3CCOCC3=O)cc2)C(=O)O1)c1ccc(Cl)s1 [Rivaroxaban] | 1.199 | 1.057 |  |  | −0.14 | −0.30 | 1.076 | 0.7773 | 
CCN(C)C(=O)Oc1cccc([C@H](C)N(C)C)c1 [Rivastigmine] |  |  |  |  |  |  |  |  | Cholesterol-free media + simvastatin (0.04 μM) ([1]; NCI-H292 cells, cholesterol-free media with simvastatin 0.04 μM, […]): 1.229; Complete Media ([1]; NCI-H292 cells, complete media, […]): 1.345; Difference [1, 5]: 0.12; Difference [2, 6]: −0.61; Cholesterol-free ([2]; NCI-H292 cells in cholesterol-free media without statin): 1.742; Complete ([2]; NCI-H292 cells in complete media): 1.133
CN(C)CCc1c[nH]c2ccc(Cn3cncn3)cc12.O=C(O)c1ccccc1 [Rizatriptan (benzoate)] | 1.054 | 0.9799 | 0.4266 | 0.447 |  |  |  |  | Difference ([1]; complete media vs cholesterol-free media + simvastatin (0.04 μM), […]): −0.07; Difference [2, 6]: 0.02
C=CC[N+]1([C@H]2C[C@H]3[C@@H]4CC[C@H]5C[C@H](O)[C@@H](N6CCOCC6)C[C@]5(C)[C@H]4CC[C@]3(C)[C@H]2OC(C)=O)CCCC1.[Br-] [Rocuronium (Bromide)] |  |  |  |  |  |  |  |  | Cholesterol-free media + simvastatin (0.04 μM) [1]: 0.8493; Complete Media [1]: 1.097; Difference [1]: 0.25; Cholesterol-free [2]: 0.9624; Complete [2]: 0.9092; Difference [2]: −0.05
CS(=O)(=O)c1ccc(C2=C(c3ccccc3)C(=O)OC2)cc1 [Rofecoxib] | 1.252 |  | 1.041 |  | −0.11 |  |  |  | Difference [2, 16]: 0.11
O=C(Nc1c(Cl)cncc1Cl)c1ccc(OC(F)F)c(OCC2CC2)c1 [Roflumilast] |  |  | 0.9495 | 0.8928 | −0.71 | −0.06 |  |  | Cholesterol-free media + simvastatin (0.04 μM) [1, 9]: 1.607; Complete Media [1, 10]: 0.8972
C[C@@H](OC[C@@]1(c2ccccc2)CC[C@]2(CCC(=O)N2)CN1)c1cc(C(F)(F)F)cc(C(F)(F)F)c1 [Rolapitant] | 1.001 | 0.9304 | 0.9892 | 0.9523 | −0.07 | −0.04 |  |  | 
